Measurements as given in patent US20230148214A1, “INDAZOLES AND AZAINDAZOLES AS LRRK2 INHIBITORS” (ESCAPE Bio, Inc., priority 2020, published 2023).

How the values were obtained:
LRRK2 G2019S = biological target: T1, LRRK2 G2019S (Homo sapiens, UniProt Q5S007, G2019S); test: LRRK2 Kinase Activity Assay (LanthaScreen TR-FRET), G2019S; assay type: biochemical; settings: recombinant G2019S-LRRK2, 25 μM ATP, 400 nM LRRKtide, 60 min; class symbols
T1 construct: purchased Life Technologies PV4881
Method in brief: (§1)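 IC50 fitted to the compound-dependent loss of TR-FRET signal. Each kinase form, wild type or G2019S, phosphorylated the fluorescein-tagged ERM-derived LRRKtide in the presence of ATP and compound dilutions over 60 min at room temperature; quench contained 10 mM EDTA and 2 nM anti-pERM antibody (final).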

LRRK2 WT = biological target: T2, LRRK2 WT (Homo sapiens, UniProt Q5S007); test: LRRK2 Kinase Activity Assay (LanthaScreen TR-FRET), wild type; assay type: biochemical; settings: recombinant wild type LRRK2, 25 μM ATP, 400 nM LRRKtide, 60 min; class symbols
T2 construct: purchased Life Technologies PR8604B
Method in brief: as §1

T1 sequence (Q5S007 whole entry G2019S): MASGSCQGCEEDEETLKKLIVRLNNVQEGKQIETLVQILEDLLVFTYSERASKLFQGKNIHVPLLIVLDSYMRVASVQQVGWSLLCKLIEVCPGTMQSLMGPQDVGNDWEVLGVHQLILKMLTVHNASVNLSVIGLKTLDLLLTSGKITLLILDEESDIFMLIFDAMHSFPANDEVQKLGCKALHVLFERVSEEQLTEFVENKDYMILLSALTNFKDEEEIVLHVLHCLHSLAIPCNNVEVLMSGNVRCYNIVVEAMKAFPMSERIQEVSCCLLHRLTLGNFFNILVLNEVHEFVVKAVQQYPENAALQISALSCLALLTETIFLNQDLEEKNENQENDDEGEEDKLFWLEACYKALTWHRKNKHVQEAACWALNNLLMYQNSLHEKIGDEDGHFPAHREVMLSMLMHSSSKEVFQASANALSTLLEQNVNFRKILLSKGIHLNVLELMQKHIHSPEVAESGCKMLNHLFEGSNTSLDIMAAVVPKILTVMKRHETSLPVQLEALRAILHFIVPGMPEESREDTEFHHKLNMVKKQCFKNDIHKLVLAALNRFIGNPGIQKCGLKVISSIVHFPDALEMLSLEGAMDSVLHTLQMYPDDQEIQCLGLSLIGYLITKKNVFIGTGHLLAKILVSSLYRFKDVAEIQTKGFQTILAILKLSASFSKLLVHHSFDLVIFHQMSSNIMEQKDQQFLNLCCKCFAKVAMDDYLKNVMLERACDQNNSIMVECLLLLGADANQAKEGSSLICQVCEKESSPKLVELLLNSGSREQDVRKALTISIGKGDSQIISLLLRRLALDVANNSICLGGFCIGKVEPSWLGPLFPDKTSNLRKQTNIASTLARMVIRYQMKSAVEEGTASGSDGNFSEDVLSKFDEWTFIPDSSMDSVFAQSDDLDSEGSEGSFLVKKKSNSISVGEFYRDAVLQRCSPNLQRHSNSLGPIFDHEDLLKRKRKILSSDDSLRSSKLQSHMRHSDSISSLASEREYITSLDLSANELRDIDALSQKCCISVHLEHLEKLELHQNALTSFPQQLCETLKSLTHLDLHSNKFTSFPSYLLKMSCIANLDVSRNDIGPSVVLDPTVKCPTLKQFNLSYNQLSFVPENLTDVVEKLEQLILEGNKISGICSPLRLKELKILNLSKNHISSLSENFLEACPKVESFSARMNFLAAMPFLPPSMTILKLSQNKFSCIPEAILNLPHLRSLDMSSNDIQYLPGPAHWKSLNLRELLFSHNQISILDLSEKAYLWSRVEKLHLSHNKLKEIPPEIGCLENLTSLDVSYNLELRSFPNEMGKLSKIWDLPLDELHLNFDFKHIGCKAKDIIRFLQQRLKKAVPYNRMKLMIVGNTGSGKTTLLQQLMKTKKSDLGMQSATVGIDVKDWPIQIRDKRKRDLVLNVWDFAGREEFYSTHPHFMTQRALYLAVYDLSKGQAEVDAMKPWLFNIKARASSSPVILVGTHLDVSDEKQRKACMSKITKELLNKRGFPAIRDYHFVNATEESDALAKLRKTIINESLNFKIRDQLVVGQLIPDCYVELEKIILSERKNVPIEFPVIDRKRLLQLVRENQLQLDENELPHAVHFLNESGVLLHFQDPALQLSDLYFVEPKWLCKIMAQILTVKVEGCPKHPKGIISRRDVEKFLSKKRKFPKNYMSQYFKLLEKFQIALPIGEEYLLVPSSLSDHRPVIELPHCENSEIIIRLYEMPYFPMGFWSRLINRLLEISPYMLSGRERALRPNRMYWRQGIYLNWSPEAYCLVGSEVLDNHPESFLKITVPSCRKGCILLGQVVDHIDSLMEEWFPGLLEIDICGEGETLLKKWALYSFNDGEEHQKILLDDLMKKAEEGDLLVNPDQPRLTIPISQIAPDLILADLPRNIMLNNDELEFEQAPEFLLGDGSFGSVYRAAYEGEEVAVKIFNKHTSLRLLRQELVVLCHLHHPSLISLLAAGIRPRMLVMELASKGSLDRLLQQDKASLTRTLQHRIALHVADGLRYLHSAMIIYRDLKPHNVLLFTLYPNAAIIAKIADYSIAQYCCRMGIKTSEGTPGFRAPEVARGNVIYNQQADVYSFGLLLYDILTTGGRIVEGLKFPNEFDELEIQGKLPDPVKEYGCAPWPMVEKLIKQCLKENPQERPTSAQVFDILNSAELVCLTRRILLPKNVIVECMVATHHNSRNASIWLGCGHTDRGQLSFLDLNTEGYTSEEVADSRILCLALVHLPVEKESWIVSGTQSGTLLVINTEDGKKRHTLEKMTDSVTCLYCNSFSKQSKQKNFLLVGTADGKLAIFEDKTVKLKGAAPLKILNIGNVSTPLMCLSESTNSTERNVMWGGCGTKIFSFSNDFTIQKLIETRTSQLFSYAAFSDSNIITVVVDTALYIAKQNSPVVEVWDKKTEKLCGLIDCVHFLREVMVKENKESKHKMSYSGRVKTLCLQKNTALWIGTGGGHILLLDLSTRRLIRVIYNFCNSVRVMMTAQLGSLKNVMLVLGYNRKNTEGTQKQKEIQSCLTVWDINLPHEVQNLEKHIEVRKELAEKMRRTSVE
T2 sequence (Q5S007 whole entry): as the sequence (Q5S007 whole entry G2019S) above, with S2019G counted along it

SMILES	IC50 (LRRK2 G2019S) [nM]	IC50 (LRRK2 WT) [nM]
Cn1ccc(-c2n[nH]c3ccc(N[C@H]4CCCc5cc(C#N)cnc54)cc23)c1 (single isomer, unassigned) [Example 149, enantiomer 2, 8-((3-(1-Methyl-1H-pyrrol-3-yl)-1H-indazol-5-yl)amino)-5,6,7,8-tetrahydroquinoline-3-carbonitrile]	< 100	< 100
Cc1c(C#N)cnc2c1CCC[C@@H]2Nc1ccc2[nH]nc(-c3cnco3)c2c1 (single isomer, unassigned) [Example 150, enantiomer 1, 4-Methyl-8-((3-(oxazol-5-yl)-1H-indazol-5-yl)amino)-5,6,7,8-tetrahydroquinoline-3-carbonitrile]	100 to 1000	100 to 1000
Cc1c(C#N)cnc2c1CCC[C@@H]2Nc1ccc2[nH]nc(-c3cnco3)c2c1 (single isomer, unassigned) [Example 150, enantiomer 2, 4-Methyl-8-((3-(oxazol-5-yl)-1H-indazol-5-yl)amino)-5,6,7,8-tetrahydroquinoline-3-carbonitrile]	< 100	< 100
N#Cc1ccc2c(c1F)CC(F)(F)[C@@H]2Nc1ccc2[nH]nc(-c3cnco3)c2c1 (single isomer, unassigned) [Example 151, enantiomer 1, 2,2,4-Trifluoro-1-((3-(oxazol-5-yl)-1H-indazol-5-yl)amino)-2,3-dihydro-1H-indene-5-carbonitrile]	< 100	100 to 1000
N#Cc1ccc2c(c1)CCCC2Oc1ccc2[nH]nc(C(F)(F)F)c2c1 (single isomer, unassigned) [Example 152, enantiomer 1, 5-((3-(Trifluoromethyl)-1H-indazol-5-yl)oxy)-5,6,7,8-tetrahydronaphthalene-2-carbonitrile]	1000 to 10000	1000 to 10000
N#Cc1ccc2c(c1)CCCC2Nc1ccc2[nH]nc(C(F)(F)F)c2c1 (single isomer, unassigned) [Example 153, enantiomer 1, 5-((3-(Trifluoromethyl)-1H-indazol-5-yl)amino)-5,6,7,8-tetrahydronaphthalene-2-carbonitrile]	< 100	1000 to 10000
COc1c(C#N)cnc2c1CC[C@@H]2Nc1ccc2[nH]nc(-c3cnco3)c2c1 (single isomer, unassigned) [Example 154, enantiomer 2, 4-Methoxy-7-((3-(oxazol-5-yl)-1H-indazol-5-yl)amino)-6,7-dihydro-5H-cyclopenta[b]pyridine-3-carbonitrile]	< 100	< 100
Cc1ncc(-c2n[nH]c3ccc(N[C@@H]4c5ccc(C#N)cc5CC4(F)F)cc23)o1 (single isomer, unassigned) [Example 155, enantiomer 1, 2,2-Difluoro-1-((3-(2-methyloxazol-5-yl)-1H-indazol-5-yl)amino)-2,3-dihydro-1H-indene-5-carbonitrile]	< 100	< 100
Cc1ncc(-c2n[nH]c3ccc(O[C@H]4CCc5c4ccc(C#N)c5F)cc23)o1 (single isomer, unassigned) [Example 156, enantiomer 1, 4-Fluoro-1-((3-(2-methyloxazol-5-yl)-1H-indazol-5-yl)oxy)-2,3-dihydro-1H-indene-5-carbonitrile]	< 100	< 100
N#Cc1ccc2c(c1)CCC[C@@H]2Nc1ccc2[nH]nc(-c3ccn[nH]3)c2c1 (single isomer, unassigned) [Example 157, enantiomer 1, 5-((3-(1H-Pyrazol-5-yl)-1H-indazol-5-yl)amino)-5,6,7,8-tetrahydronaphthalene-2-carbonitrile]	100 to 1000	100 to 1000
N#Cc1ccc2c(c1)CCC[C@@H]2Nc1ccc2[nH]nc(-c3ccn[nH]3)c2c1 (single isomer, unassigned) [Example 157, enantiomer 2, 5-((3-(1H-Pyrazol-5-yl)-1H-indazol-5-yl)amino)-5,6,7,8-tetrahydronaphthalene-2-carbonitrile]	< 100	< 100
Cc1cc(-c2n[nH]c3ccc(N[C@H]4CCCc5cc(C#N)cnc54)cc23)sn1 (single isomer, unassigned) [Example 158, enantiomer 1, 8-((3-(3-Methylisothiazol-5-yl)-1H-indazol-5-yl)amino)-5,6,7,8-tetrahydroquinoline-3-carbonitrile]	< 100	< 100
Cc1ncc(-c2n[nH]c3ccc(N[C@H]4CCCc5cc(C#N)c(C)nc54)cc23)o1 (single isomer, unassigned) [Example 159, enantiomer 1, 2-Methyl-8-((3-(2-methyloxazol-5-yl)-1H-indazol-5-yl)amino)-5,6,7,8-tetrahydroquinoline-3-carbonitrile]	< 100	< 100
Cc1ncc(-c2n[nH]c3ccc(O[C@H]4CCc5cc(C#N)c(F)cc54)cc23)o1 (single isomer, unassigned) [Example 160, enantiomer 1, 6-Fluoro-1-((3-(2-methyloxazol-5-yl)-1H-indazol-5-yl)oxy)-2,3-dihydro-1H-indene-5-carbonitrile]	< 100	< 100
N#Cc1cnc2c(c1)CCC[C@@H]2Oc1ccc2[nH]nc(-c3cnccn3)c2c1 (single isomer, unassigned) [Example 161, enantiomer 1, 8-((3-(Pyrazin-2-yl)-1H-indazol-5-yl)oxy)-5,6,7,8-tetrahydroquinoline-3-carbonitrile]	< 100	< 100
N#Cc1cnc2c(c1)CCC[C@@H]2Oc1ccc2[nH]nc(-c3cnccn3)c2c1 (single isomer, unassigned) [Example 161, enantiomer 2, 8-((3-(Pyrazin-2-yl)-1H-indazol-5-yl)oxy)-5,6,7,8-tetrahydroquinoline-3-carbonitrile]	< 100	100 to 1000
[2H][C@]1(Nc2ccc3[nH]nc(-c4cnco4)c3c2)CCCc2cc(C#N)cnc21 (single isomer, unassigned) [Example 162, enantiomer 1, 8-Deuterio-8-((3-(oxazol-5-yl)-1H-indazol-5-yl)amino)-5,6,7,8-tetrahydroquinoline-3-carbonitrile]	100 to 1000	100 to 1000
[2H][C@]1(Nc2ccc3[nH]nc(-c4cnco4)c3c2)CCCc2cc(C#N)cnc21 (single isomer, unassigned) [Example 162, enantiomer 2, 8-Deuterio-8-((3-(oxazol-5-yl)-1H-indazol-5-yl)amino)-5,6,7,8-tetrahydroquinoline-3-carbonitrile]	< 100	< 100
N#Cc1cnc2c(n1)CCC[C@@H]2Oc1ccc2[nH]nc(-c3cnco3)c2c1 (single isomer, unassigned) [Example 163, enantiomer 1, 5-[[3-(1,3-Oxazol-5-yl)-1H-indazol-5-yl]oxy]-5,6,7,8-tetrahydroquinoxaline-2-carbonitrile]	< 100	100 to 1000
Cc1nc2c(c(C)c1C#N)CCC[C@@H]2Nc1ccc2[nH]nc(-c3cnco3)c2c1 (single isomer, unassigned) [Example 164, enantiomer 1, 2,4-Dimethyl-8-[[3-(1,3-oxazol-5-yl)-1H-indazol-5-yl]amino]-5,6,7,8-tetrahydroquinoline-3-carbonitrile]	< 100	100 to 1000
COc1nc2c(c(C)c1C#N)CCC[C@@H]2Nc1ccc2[nH]nc(-c3cnco3)c2c1 (single isomer, unassigned) [Example 165, enantiomer 1, 2-Methoxy-4-methyl-8-[[3-(1,3-oxazol-5-yl)-1H-indazol-5-yl]amino]-5,6,7,8-tetrahydroquinoline-3-carbonitrile]	< 100	100 to 1000
Cc1c(C#N)c(Cl)nc2c1CC[C@@H]2Oc1ccc2[nH]nc(-c3cnco3)c2c1 (single isomer, unassigned) [Example 166, enantiomer 1, 2-Chloro-4-methyl-7-[[3-(1,3-oxazol-5-yl)-1H-indazol-5-yl]oxy]-6,7-dihydro-5H-cyclopenta[b]pyridine-3-carbonitrile]	< 100	< 100
N#Cc1c(F)cc2c(c1F)CC[C@@H]2Oc1ccc2[nH]nc(-c3cnco3)c2c1 (single isomer, unassigned) [Example 167, enantiomer 1, 4,6-Difluoro-1-[[3-(1,3-oxazol-5-yl)-1H-indazol-5-yl]oxy]-2,3-dihydro-1H-indene-5-carbonitrile]	< 100	100 to 1000
C[C@@H]1C[C@@H](Nc2ccc3[nH]nc(-c4cnco4)c3c2)c2ccc(C#N)cc21 (single isomer, unassigned) [Example 168, enantiomer 1, trans-3-Methyl-1-[[3-(1,3-oxazol-5-yl)-1H-indazol-5-yl]amino]-2,3-dihydro-1H-indene-5-carbonitrile]	< 100	100 to 1000
C[C@@H]1C[C@@H](Nc2ccc3[nH]nc(-c4cnco4)c3c2)c2ccc(C#N)cc21 (single isomer, unassigned) [Example 168, enantiomer 2, trans-3-Methyl-1-[[3-(1,3-oxazol-5-yl)-1H-indazol-5-yl]amino]-2,3-dihydro-1H-indene-5-carbonitrile]	< 100	100 to 1000
C[C@H]1C[C@@H](Nc2ccc3[nH]nc(-c4cnco4)c3c2)c2ccc(C#N)cc21 (single isomer, unassigned) [Example 169, enantiomer 1, cis-3-Methyl-1-[[3-(1,3-oxazol-5-yl)-1H-indazol-5-yl]amino]-2,3-dihydro-1H-indene-5-carbonitrile]	< 100	100 to 1000
C[C@H]1C[C@@H](Nc2ccc3[nH]nc(-c4cnco4)c3c2)c2ccc(C#N)cc21 (single isomer, unassigned) [Example 169, enantiomer 2, cis-3-Methyl-1-[[3-(1,3-oxazol-5-yl)-1H-indazol-5-yl]amino]-2,3-dihydro-1H-indene-5-carbonitrile]	< 100	100 to 1000
